Experimental data as given in patent publication US7803764B2, “Amphipathic glycopeptides” (The Arizona Board of Regents on Behalf of the University of …, priority 2004, dated 2010).
pIC50, pKd: −log10 of the molar value. Entries after “also recorded” stand apart in the source; their conditions may differ.

Legend:
[1] = helicity by circular dichroism; assay type: physicochemical; settings: for % α-helicity: CD, SDS micelles (30 mM), pH = 7.0, 18° C.
Description: Circular Dichroism. All of the circular dichroism experiments were carried out on Aviv Associates model 60DS using an Endcal Model RTE4DD water circulator as a temperature-control vehicle. The instrument was calibrated by using d-10-camphorsulphonic acid. The spectra were recorded between 200 and 250 nm by using the continuous mode with a 1.5 nm bandwidth, a three second response and a scan step of 0.5 nm in a cell with a path length of 0.1 cm. Three or five scans were accumulated and averaged for each spectrum. Glycopeptide stock solutions were prepared by weighing the required amount, using Cahn/Ventron Instruments Model 21 automatic analytical electrobalance, to make 1 mL of a 0.5-1.0 mM solution and the pH was adjusted to the desired value. Samples were prepared by diluting the stock solution to 70-80 μM. All observed spectra were baseline-subtracted and smoothed by adjacent average of 5 points using Microcal Origin Ver. 5.0 software (Microcal Software Inc, USA). The molar ellipticities were determined using the formula [θ]=[θ]obs·(MRW)/10·l·C, where [θ]obs observed ellipticity in millidegrees, MRW is the mean residue weight, l is the cell path length in centimeters and C is the glycopeptide concentration in mg/mL. The percent α-helicity was determined by using the formula % helix=[θ]n→π*/−40,000 (1−2.5/n)·100, where n represents the number of amide bonds (including the C-terminal amide) in the glycopeptide and [θ]n→π** is molar ellipticity of n→π* transition band at 222 nm.^55
Conformational Analysis by CD. Circular dichroism (CD) is a powerful and simple tool for identifying secondary structure in both peptides and proteins.^64 All the peptides were subjected to CD analysis in H2O, TFE-H2O mixtures, SDS micelles and phospholipid bicelles. In H2O, a negative band near 200 nm is observed that arises from the π→π* electronic transition and is typical of random coil peptides. […] This behavior is explained as nascent helices.^65 In these nascent helices, helix CD signals could be induced by the addition of TFE.^66 All the glycopeptides gave an increased helix CD signal in TFE. The percentage of helicity increases as TFE concentration increases, but reached a maximum at 30% TFE. The increase in helicity in TFE can be attributed to decreased competition by H2O for hydrogen bonding to the backbone amides. […] In the presence of SDS micelles and anionic bicelles, the band at 200 nm underwent a red shift (higher value) and an additional shoulder appears around 222 nm as a result of the n→π* transition. […] The negative maxima at 222 nm (n→π* transition band) is used to calculate the helical content of polypeptides and proteins. The accepted value for a peptide that is 100% helical is approximately −35,000. It was observed that changes in amplitude of the bands up to 30% depend on length of helix.^67 The amplitude increases as α-helical chain length increases. Therefore, one has to consider the importance of chain-length dependence of the α-helix CD in the quantitative treatment of helix content in proteins and polypeptides. The percentage of helicity is independent of SDS concentration and pH (data not shown). In the presence of zwitterionic bicelles all of the glycopeptides yielded CD spectra similar to that observed in H2O, but anionic bicelles forced them to become more helical. The intensities of the [θ]π→π* band and the [θ]n→π* band are expected to be almost equal for a perfect α-helical peptide. […] A modest blue shift and reduced intensity for the [θ]n→π* transition bands are observed for all the glycopeptides in TFE. […] The glycopeptides 9 (Pro/Glc) and 12 (Pro/Lactose), which differ only by the sugar moiety attached, adopt perfect helices in the presence of SDS micelles and in anionic bicelles. The disaccharide increased the percentage of helicity in all the solvents, relative to the monosaccharide. […] It is remarkable to note that a single amino acid mutation at position 6 produced profound changes in the CD spectra. […]

[2] = water solubility; settings: H2O
[3] = target: δ opioid receptor (Homo sapiens, UniProt P41143); experiment: opioid receptor binding, δ receptor
Chain of δ opioid receptor (P41143 whole entry): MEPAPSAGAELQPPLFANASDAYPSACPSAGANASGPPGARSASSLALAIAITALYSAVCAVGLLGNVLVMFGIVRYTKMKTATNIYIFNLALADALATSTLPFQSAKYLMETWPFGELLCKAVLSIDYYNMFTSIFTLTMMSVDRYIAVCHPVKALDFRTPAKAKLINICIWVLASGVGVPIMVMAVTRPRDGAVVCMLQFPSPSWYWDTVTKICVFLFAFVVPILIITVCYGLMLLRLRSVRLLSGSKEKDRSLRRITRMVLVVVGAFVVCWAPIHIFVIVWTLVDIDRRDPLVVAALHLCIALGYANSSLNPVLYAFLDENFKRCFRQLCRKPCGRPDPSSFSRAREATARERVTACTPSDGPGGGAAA

[4] = target: μ opioid receptor (Homo sapiens, UniProt P35372); experiment: opioid receptor binding, μ receptor
Chain of μ opioid receptor (P35372 whole entry): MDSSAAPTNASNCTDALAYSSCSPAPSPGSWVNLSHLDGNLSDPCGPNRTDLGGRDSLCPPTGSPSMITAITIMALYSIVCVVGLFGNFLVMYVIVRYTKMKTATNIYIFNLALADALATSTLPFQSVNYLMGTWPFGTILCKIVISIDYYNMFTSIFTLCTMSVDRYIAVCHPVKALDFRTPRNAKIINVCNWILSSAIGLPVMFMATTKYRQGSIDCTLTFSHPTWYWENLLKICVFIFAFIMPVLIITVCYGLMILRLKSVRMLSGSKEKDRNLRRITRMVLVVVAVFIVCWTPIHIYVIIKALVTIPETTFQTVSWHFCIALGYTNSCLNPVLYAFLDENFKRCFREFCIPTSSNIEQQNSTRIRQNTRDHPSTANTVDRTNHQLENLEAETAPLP

[5] = in vivo antinociception after i.c.v. administration; design: species or system mice; settings: for A50 i.c.v.: antinociception
[6] = Plasmon-waveguide resonance (PWR) binding to lipid bilayer; settings: egg PC bilayer, 25° C., read-out: dissociation constant KD for lipid bilayer
Description: Plasmon-waveguide resonance (PWR) spectroscopy. The PWR instrument used for these experiments was Aviv Beta prototype version device obtained from Proterion Corp. (Piscataway, N.J.) having a spectral resolution of 1 millidegree. Self-assembled so lid-supported lipid membranes were prepared according to the method used for the formation of freely suspended lipid bilayers.^62 This involves spreading a small amount of lipid solution across an orifice in a Teflon sheet that separates the thin dielectric film (SiO2) from the aqueous phase. The hydrophilic surface of hydrated SiO2 attracts the polar groups of the lipid molecules, thus inducing an initial orientation of the lipid molecules, with the hydrocarbon chains pointing toward the droplet of excess lipid solution. The next steps of bilayer formation, induced by adding aqueous buffer to the sample compartment of the PWR cell, involve a thinning process and the formation of a plateau-Gibbs border of lipid solution that anchors the membrane to the Teflon spacer. In the present experiments, the lipid films were formed from a solution containing 5 mg/ml egg phosphatidylcholine (PC) in squalene/butanol/methanol (0.05:9.5:0.5, v/v). […] Aliquots of the glycosylated peptides, dissolved in deionized water, were injected stepwise in the PWR cell sample and the signal monitored until equilibrium was reached (PWR signal steady). […]

[7] = helicity by NMR αCH chemical shift index; assay type: physicochemical
Description: NMR Spectroscopy. All NMR spectra were recorded on a Bruker DRX600 600 MHz spectrometer. Glycopeptide concentration for the NMR experiments varied from 2-3 mM. The glycopeptides were prepared in TFE-water solution by dissolving the peptide in 0.6 ml solution of a premixed 30% TFE-water mixture. The micelle samples were prepared by dissolving the glycopeptide and 100 equivalent of perdeuterated SDS in 0.6 ml of H2O/D2O (9:1 ratio by volume). Bicelles were produced from deuterated phospholipids. The zwitterionic bicelles were made by mixing the short chain phospholipid dihexanoyl-sn-glycero-3-phosphatidylcholine-d22 (DHPC) and the long chain 1,2-dimyristoyl-sn-glycero-3-phosphatidylcholine-d54 (DMPC) in the molar ratio of 2:1 in H2O. The […] were prepared by substituting 10 mol % of 1,2-dimyristoyl-sn-glycero-3-phospho-1-glycerol-d54 (DMPG) for DMPC. The glycopeptide to bicelle ratio was 1:25. After the glycopeptide was added to the bicelle solution, the system was submitted to a series o f three freeze/thaw/slight vortex shaking cycles. The pH of the each sample was adjusted to 4.5 by using DCl or NaOD as necessary. TSP (3-(trimethylsilyl)-d4-propionic acid) was added as an internal standard. The experiments in F3CCD2OD/H2O mixtures were at 293 K and for experiments in micelles/bicelles were at 298 or 311 K. Two-dimensional double quantum filtered correlation (DQF-COSY), rotating-frame Overhauser enhancement^56 (ROESY), Nuclear Overhauser enhancement^57 (NOESY), and total correlation spectra^58 (TOCSY) were acquired using standard pulse sequences and processed using XWINNMR (Bruker Inc) and FELIX2000 (Accelrys Inc, San Diego, Calif.), Mixing times for TOCSY spectra were either 80 or 100 ms. Mixing times for ROESY spectra were 150 or 250 ms, and for NOESY spectra were 200 or 300 ms. All experiments were 750 increments in t1, 16/32/64 scans each, 1.5 s relaxation delay, size 2 or 4K, and the spectral processing was with shifted sine bell window multiplications in both dimensions.
αCH Chemical Shift Index. […] At this point there is no accepted random coil αCH values for glycosylated serine, CSI values for this position are uncertain. The conformational shift values for all solvents were obtained using the random coil values described by Wright and co-workers.^72 Although, these reference shifts were obtained at pH=5.0 at 4.2° C., they appear to be very insensitive to the conditions, as very small deviations (±0.04) were observed when random coil values are obtained at pH=7.0 at 35° C. by Wuthrich and co-workers.^68 The quantification of secondary structure based on αCH chemical shifts is neglected in the literature because various contributions cannot be strictly accounted for, such as electrostatic effects, ring current shifts, and other magnetic anisotropies. However, it is possible to make qualitative comparison of helical content between closely related (glyco)peptides. Since the 3rd generation glycopeptides differ by only one amino acid at position 6, the helical content was obtained based on the αCH chemical shift values (Table 3). The method described by Gierasch and co-workers^69a was used. First, the average conformational shift was calculated for each glycopeptide by adding all upfield shifts in the helical regions and dividing by the total number of peptide bonds. Then, to obtain the overall helical content for each glycopeptide, the average conformational shift was divided by 0.35 ppm, which was assigned for 100% helicity. Since, there are no random coil values available for β-Alanine and glycosylated serine residues, they were not included in the calculation. The helicogenic Aib residue lacks an α-proton, and there was no correction included in the calculation for the helicity provided by Aib residue. The helical content obtained by this method correlated with the helical content obtained by CD. […]

[8] = blood-brain barrier uptake / penetration; settings: mice

| SMILES | % α-helicity [1] | water solubility [2] | pIC50 [3] | pIC50 [4] | A50 i.c.v. ([5]; i.c.v., mice) | further results |
| --- | --- | --- | --- | --- | --- | --- |
| CC(C)C[C@H](NC(=O)[C@H](C)NC(=O)[C@H](CC(N)=O)NC(=O)[C@H](Cc1ccccc1)NC(=O)[C@H](Cc1c[nH]c2ccccc12)NC(=O)[C@H](CCCCN)NC(=O)[C@H](CO[C@@H]1O[C@H](CO)[C@@H](O)[C@H](O)[C@H]1O)NC(=O)[C@H](C)NC(=O)[C@H](CC(C)C)NC(=O)[C@H](CCC(=O)O)NC(=O)CNC(=O)[C@H](CC(C)C)NC(=O)[C@H](Cc1ccccc1)NC(=O)CNC(=O)[C@H](NC(=O)[C@@H](N)Cc1ccc(O)cc1)[C@H](C)O)C(=O)N[C@@H](CCC(=O)O)C(=O)N[C@@H](CO[C@@H]1O[C@H](CO)[C@@H](O)[C@H](O)[C@H]1O)C(=O)N[C@@H](Cc1ccccc1)C(=O)N[C@@H](Cc1c[nH]c2ccccc12)C(N)=O (relative stereo) [Glycopeptide 4, YtGFLGELAS*KWFNALES*FW] | 82% | H2O insoluble |  |  |  |  |
| CC(C)C[C@H](NC(=O)[C@H](C)NC(=O)[C@H](CC(N)=O)NC(=O)[C@H](Cc1ccccc1)NC(=O)[C@H](Cc1c[nH]c2ccccc12)NC(=O)[C@H](CCCCN)NC(=O)[C@H](CO[C@@H]1O[C@H](CO)[C@@H](O)[C@H](O)[C@H]1O)NC(=O)[C@H](C)NC(=O)[C@H](CC(C)C)NC(=O)[C@H](CCC(=O)O)NC(=O)CNC(=O)[C@H](CC(C)C)NC(=O)[C@H](Cc1ccccc1)NC(=O)CNC(=O)[C@H](NC(=O)[C@@H](N)Cc1ccc(O)cc1)[C@H](C)O)C(=O)N[C@@H](CCC(=O)O)C(N)=O (relative stereo) [Glycopeptide 1, YtGFLGELAS*KWFNALE] | 85% | H2O insoluble |  |  |  |  |
| CC(C)C[C@H](NC(=O)[C@H](CO[C@@H]1O[C@H](CO)[C@@H](O)[C@H](O)[C@H]1O)NC(=O)[C@H](CCCCN)NC(=O)[C@H](CC(C)C)NC(=O)[C@H](C)NC(=O)[C@H](CCCCN)NC(=O)[C@H](CCC(=O)O)NC(=O)C(C)(C)NC(=O)[C@H](CC(C)C)NC(=O)[C@H](CC(N)=O)NC(=O)[C@@H]1CCCN1C(=O)[C@H](CC(C)C)NC(=O)[C@H](Cc1ccccc1)NC(=O)CNC(=O)[C@H](NC(=O)[C@@H](N)Cc1ccc(O)cc1)[C@H](C)O)C(N)=O (relative stereo) [Glycopeptide 9, YtGFLPNLBEKALKS*L] |  |  | 8.21 | 7.04 | 0.030 nmol | pKd [6]: 8.10 to 8.15; % α-helicity by CD ([1]; solvent Bicelle A (anionic bicelles)): 25%; % α-helicity by CD ([1]; solvent H2O): >1%; % α-helicity by CD ([1]; solvent SDS micelles): 24%; % α-helicity by CD ([1]; solvent TFE): 18%; % α-helicity by NMR ([7]; solvent Bicelle A): 44%; % α-helicity by NMR ([7]; solvent H2O): 20%; % α-helicity by NMR ([7]; solvent SDS micelles): 46%; % α-helicity by NMR ([7]; solvent TFE): 30%; BBB uptake [8]: 0.390 microliters per min per gram of cortex; blood brain barrier penetration (in words) [8]: efficiently cross the blood brain barrier; also recorded: much better BBB penetration rates; also recorded: best BBB penetration |
| CC(C)C[C@H](NC(=O)[C@H](C)NC(=O)[C@H](CC(N)=O)NC(=O)[C@H](Cc1ccccc1)NC(=O)[C@H](Cc1c[nH]c2ccccc12)NC(=O)[C@H](CCCCN)NC(=O)[C@H](CO[C@@H]1O[C@H](CO)[C@@H](O)[C@H](O)[C@H]1O)NC(=O)[C@H](C)NC(=O)[C@H](CC(C)C)NC(=O)[C@H](CCC(=O)O)NC(=O)CNC(=O)[C@H](CC(C)C)NC(=O)[C@H](Cc1ccccc1)NC(=O)CNC(=O)[C@H](NC(=O)[C@@H](N)Cc1ccc(O)cc1)[C@H](C)O)C(=O)N[C@@H](CCC(=O)O)C(=O)N[C@@H](CO[C@@H]1O[C@H](CO)[C@@H](O)[C@H](O)[C@H]1O)C(=O)N[C@@H](Cc1ccccc1)C(N)=O (relative stereo) [Glycopeptide 3, YtGFLGELAS*KWFNALES*F] | 65% | H2O insoluble |  |  |  |  |
| CC(C)C[C@H](NC(=O)[C@H](C)NC(=O)[C@H](CC(N)=O)NC(=O)[C@H](Cc1ccccc1)NC(=O)[C@H](Cc1c[nH]c2ccccc12)NC(=O)[C@H](CCCCN)NC(=O)[C@H](CO[C@@H]1O[C@H](CO)[C@@H](O)[C@H](O)[C@H]1O)NC(=O)[C@H](C)NC(=O)[C@H](CC(C)C)NC(=O)[C@H](CCC(=O)O)NC(=O)CNC(=O)[C@H](CC(C)C)NC(=O)[C@H](Cc1ccccc1)NC(=O)CNC(=O)[C@H](NC(=O)[C@@H](N)Cc1ccc(O)cc1)[C@H](C)O)C(=O)N[C@@H](CCC(=O)O)C(=O)N[C@@H](CO[C@@H]1O[C@H](CO)[C@@H](O)[C@H](O)[C@H]1O)C(N)=O (relative stereo) [Glycopeptide 2, YtGFLGELAS*KWFNALES*] | 67% | appreciable water solubility; also recorded: significant solubility in water | 8.02 | 6.84 | 0.27 nmol | receptor selectivity (in words) ([3]; δ versus μ, receptor binding assays): somewhat δ-selective; potency relative to morphine ([5]; i.c.v. administration, more potent than morphine): roughly 18 times; A50 value after i.c.v. administration ([5]; i.c.v., mice): 120 pmoles per mouse |
